Measurements taken from US8377974B2 (Millennium Pharmaceuticals, Inc., priority 2004, dated 2013).

Molecular target: T1, human plasma protein factor Xa (Homo sapiens, UniProt P00742)
T1 construct: measure proteolytic activity of the enzyme (factor Xa); purchased Haematologic Technologies (Essex Junction, Vt.); host or cells: human plasma
Test: Factor Xa IC50 determination: cleavage of paranitroanilide substrate S-2765 in 96-well plates
Assay type: biochemical
Conditions: fXa 1 nM, S-2765 100 μM, Tris buffered saline pH 7.4, room temperature
Summary of the method: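 Human plasma factor Xa (1 nM) preincubated 5 min at room temperature with inhibitor (0.01 nM–10 μM final) in Tris-buffered saline pH 7.4 with 5 mM CaCl2, 0.1% BSA, 5% DMSO. S-2765 at 100 μM final; hydrolysis at 405 nm over 2 min. IC50 from 4-parameter fit of initial velocities.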

T1 sequence (P00742 235-488 limits assumed): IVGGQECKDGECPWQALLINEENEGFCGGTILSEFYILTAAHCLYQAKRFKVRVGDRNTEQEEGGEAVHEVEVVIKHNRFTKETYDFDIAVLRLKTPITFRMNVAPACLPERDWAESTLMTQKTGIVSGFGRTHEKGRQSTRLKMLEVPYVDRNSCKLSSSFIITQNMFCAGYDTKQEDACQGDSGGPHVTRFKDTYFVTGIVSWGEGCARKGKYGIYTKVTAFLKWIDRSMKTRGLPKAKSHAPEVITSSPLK
T1 sequence (P00742 41-179 partner limits assumed): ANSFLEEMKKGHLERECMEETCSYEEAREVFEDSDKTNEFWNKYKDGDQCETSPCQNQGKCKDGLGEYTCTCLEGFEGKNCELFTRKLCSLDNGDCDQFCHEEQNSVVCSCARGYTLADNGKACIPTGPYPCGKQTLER

`C[C@@H](NC(=O)c1ccc(Cl)s1)c1cc(-c2ccc(C3=NCCN3C)cc2)no1` [Example 50, (R)-5-Chloro-thiophene-2-carboxylic acid (1-{3-[4-(1-methyl-4,5-dihydro-1H-imidazol-2-yl)-phenyl]-isoxazol-5-yl}-ethyl)-amide] showed an IC50 of at most 100 nM.
Work on `COc1cc(C(=N)N2CCCC2)ccc1C1=NOC(CNC(=O)c2ccc(Cl)s2)C1` (centres unmarked) [Example 104, 5-Chloro-thiophene-2-carboxylic acid {3-[4-(imino-pyrrolidin-1-yl-methyl)-2-methoxy-phenyl]-4,5-dihydro-isoxazol-5-ylmethyl}-amide] yielded an IC50 of at most 100 nM.
`O=C(NCC1CC(c2ccc(-c3ccccc3CN3CCCCCC3)cc2)=NO1)c1ccc(Cl)s1` (centres unmarked) [Example 201, 5-Chloro-thiophene-2-carboxylic acid [3-(2′-azepan-1-ylmethyl-biphenyl-4-yl)-4,5-dihydro-isoxazol-5-ylmethyl]-amide] gave an IC50 of at least 500 nM.
`Cc1ccc(=O)n(-c2ccc(-n3cc(CNC(=O)c4ccc(Cl)s4)nn3)cc2)c1` [Example 296, 5-Chloro-N-((1-(4-(5-methyl-2-oxopyridin-1(2H)-yl)phenyl)-1H-1,2,3-triazol-4-yl)methyl)thiophene-2-carboxamide] was tested, and the IC50 was at most 100 nM.
`CCn1nccc1Nc1ccc(C2=NOC(CNC(=O)c3ccc(Cl)s3)C2)cc1` (centres unmarked) [Example 232, 5-Chloro-thiophene-2-carboxylic acid {3-[4-(2-ethyl-2H-pyrazol-3-ylamino)-phenyl]-4,5-dihydro-isoxazol-5-ylmethyl}-amide] showed an IC50 of at least 500 nM.
`CN(C)C(=N)c1ccc(-c2ccc(F)c(CNC(=O)c3ccc(Cl)s3)c2)cc1` [Example 374, N-((5-(4-(N,N-Dimethylcarbamimidoyl)phenyl)-2-fluorophenyl)methyl)-5-chlorothiophene-2-carboxamide] gave an IC50 of at most 100 nM.
Molecule `CCOc1cc(C(=N)N2CCCC2)ccc1-c1cc(CNC(=O)c2ccc(Cl)s2)on1` [Example 124, 5-Chloro-thiophene-2-carboxylic acid {3-[2-ethoxy-4-(imino-pyrrolidin-1-yl-methyl)-phenyl]-isoxazol-5-ylmethyl}-amide] has an IC50 of at most 100 nM.
Molecule `N=C(c1ccc(C2=NOC(CNC(=O)c3ccc(Cl)s3)C2)c(OC2CCCCC2)c1)N1CCCC1` (centres unmarked) [Example 117, 5-Chloro-thiophene-2-carboxylic acid {3-[2-cyclohexyloxy-4-(imino-pyrrolidin-1-yl-methyl)-phenyl]-4,5-dihydro-isoxazol-5-ylmethyl}-amide] has an IC50 of at most 100 nM.
`O=C(NCc1cn(-c2ccc(-n3cc(Cl)ccc3=O)cc2)nn1)c1ccc(Cl)s1` [Example 299, 5-Chloro-N-((1-(4-(5-chloro-2-oxopyridin-1(2H)-yl)phenyl)-1H-1,2,3-triazol-4-yl)methyl)thiophene-2-carboxamide] was tested, and the IC50 was at most 100 nM.
Molecule `CN1CCN=C1c1ccc(-n2cc(CNC(=O)c3ccc(Cl)s3)cn2)cc1` [Example 326, 5-Chloro-N-((1-(4-(1-methyl-4,5-dihydro-1H-imidazol-2-yl)phenyl)-1H-pyrazol-4-yl)methyl)thiophene-2-carboxamide] has an IC50 of at most 100 nM.
`COC(=O)c1cccc(Nc2ccc(C3=NOC(CNC(=O)c4ccc(Cl)s4)C3)cc2)c1` (centres unmarked) [Example 261, 3-[4-(5-{[(5-Chloro-thiophene-2-carbonyl)-amino]-methyl}-4,5-dihydro-isoxazol-3-yl)-phenylamino]-benzoic acid methyl ester] gave an IC50 of at least 500 nM.
`C[C@H](NC(=O)c1ccc(Cl)s1)c1cc(-c2ccc(C(=N)N3CCCCC3)cc2)no1` [Example 56, (S)-5-Chloro-thiophene-2-carboxylic acid (1-{3-[4-(imino-piperidin-1-yl-methyl)-phenyl]-isoxazol-5-yl}-ethyl)-amide] was tested, and the IC50 was at most 100 nM.
For `CCOC(=O)C1CCN(C(=N)c2ccc(C3=NOC(CNC(=O)c4ccc(Cl)s4)C3)cc2)CC1` (centres unmarked) [Example 12, 1-{[4-(5-{[(5-Chloro-thiophene-2-carbonyl)-amino]-methyl}-4,5-dihydro-isoxazol-3-yl)-phenyl]-imino-methyl}-piperidine-4-carboxylic acid ethyl ester], the IC50 was 100 to 500 nM.
For `CCOC(=O)C1CCN(C(=N)c2ccc(-c3cc(CN(C)C(=O)c4ccc(Cl)s4)on3)cc2)CC1` [Example 39, 1-{[4-(5-{[(5-Chloro-thiophene-2-carbonyl)-methyl-amino]-methyl}-isoxazol-3-yl)-phenyl]-imino-methyl}-piperidine-4-carboxylic acid ethyl ester], the IC50 was at least 500 nM.
`N=C(c1ccc(-c2cc(CNC(=O)c3ccc(Cl)s3)ccc2F)cc1)N1CCCC1` [Example 379, 5-Chloro-N-((3-(4-(imino(pyrrolidin-1-yl)methyl)phenyl)-4-fluorophenyl)methyl)thiophene-2-carboxamide] was tested, and the IC50 was at most 100 nM.
For `CN1CCN=C1c1ccc(-c2nc(CNC(=O)c3ccc(Cl)s3)cs2)cc1` [Example 351, 5-Chloro-N-((2-(4-(1-methyl-4,5-dihydro-1H-imidazol-2-yl)phenyl)thiazol-4-yl)methyl)thiophene-2-carboxamide], the IC50 was 100 to 500 nM.
`N=C(c1ccc(-c2coc(CNC(=O)c3ccc(Cl)s3)n2)cc1)N1CCCC1` [Example 359, 5-Chloro-N-((4-(4-(imino(pyrrolidin-1-yl)methyl)phenyl)oxazol-2-yl)methyl)thiophene-2-carboxamide] was tested, and the IC50 was 100 to 500 nM.
`O=C(NCc1cc(-c2ccc(Nc3ccccc3)cc2)no1)c1ccc(Cl)s1` [Example 250, 5-Chloro-thiophene-2-carboxylic acid [3-(4-phenylamino-phenyl)-isoxazol-5-ylmethyl]-amide] showed an IC50 of at least 500 nM.
`CC1CCCN1C(=O)c1ccc(C2=NOC(CNC(=O)c3ccc(Cl)s3)C2)cc1` (centres unmarked) [Example 165, 5-Chloro-thiophene-2-carboxylic acid {3-[4-(2-methyl-pyrrolidine-1-carbonyl)-phenyl]-4,5-dihydro-isoxazol-5-ylmethyl}-amide] gave an IC50 of 100 to 500 nM.
Molecule `O=C(NCC1CC(c2cccc(-c3ccccc3CN3CCCC3)c2)=NO1)c1ccc(Cl)s1` (centres unmarked) [Example 263, 5-Chloro-thiophene-2-carboxylic acid [3-(2′-pyrrolidin-1-ylmethyl-biphenyl-3-yl)-4,5-dihydro-isoxazol-5-ylmethyl]-amide] has an IC50 of at least 500 nM.
`CN1CCN=C1c1ccc(C2=NOC(CNC(=O)c3ccc(Cl)s3)C2)c(N2CCOCC2)c1` (centres unmarked) [Example 83, 5-Chloro-thiophene-2-carboxylic acid {3-[4-(1-methyl-4,5-dihydro-1H-imidazol-2-yl)-2-morpholin-4-yl-phenyl]-4,5-dihydro-isoxazol-5-ylmethyl}-amide] showed an IC50 of 100 to 500 nM.
`Cc1ccc(C2=NOC(C)(CNC(=O)c3ccc(Cl)s3)C2)cc1` (centres unmarked) [Example 148, 5-Chloro-thiophene-2-carboxylic acid (5-methyl-3-p-tolyl-4,5-dihydro-isoxazol-5-ylmethyl)-amide] was tested, and the IC50 was at least 500 nM.
With `CN(C)CCN(C)Cc1ccccc1-c1ccc(C2=NOC(CNC(=O)c3ccc(Cl)s3)C2)cc1` (centres unmarked) [Example 200, 5-Chloro-thiophene-2-carboxylic acid [3-(2′-{[(2-dimethylamino-ethyl)-methyl-amino]-methyl}-biphenyl-4-yl)-4,5-dihydro-isoxazol-5-ylmethyl]-amide] the IC50 was at most 100 nM.
For `N=C(c1ccc(-n2cc(CNC(=O)c3ccc(Cl)s3)nn2)c(F)c1)N1CCCC1` [Example 322, 5-Chloro-N-((1-(2-fluoro-4-(imino(pyrrolidin-1-yl)methyl)phenyl)-1H-1,2,3-triazol-4-yl)methyl)thiophene-2-carboxamide], the IC50 was at most 100 nM.
Molecule `COc1ccc(Nc2ccc(-c3cc(CNC(=O)c4ccc(Cl)s4)on3)cc2)cc1` [Example 251, 5-Chloro-thiophene-2-carboxylic acid {3-[4-(4-methoxy-phenylamino)-phenyl]-isoxazol-5-ylmethyl}-amide] has an IC50 of at least 500 nM.
`CN(C)C(=N)c1ccc(C2=NOC(CNC(=O)c3ccc(Cl)s3)C2)c(OC2CCCC2)c1` (centres unmarked) [Example 112, 5-Chloro-thiophene-2-carboxylic acid {3-[2-cyclopentyloxy-4-(N,N-dimethyl-carbamimidoyl)-phenyl]-4,5-dihydro-isoxazol-5-ylmethyl}-amide] was tested, and the IC50 was at most 100 nM.
For `O=C(NCC1CC(c2ccc(C(=O)N3CC=CC3)cc2)=NO1)c1ccc(Cl)s1` (centres unmarked) [Example 397, 5-Chloro-N-((3-(4-(2,5-dihydro-1H-pyrrole-1-carbonyl)phenyl)-4,5-dihydroisoxazol-5-yl)methyl)thiophene-2-carboxamide], the IC50 was at most 100 nM.
`COCCN(C)C(=N)c1ccc(-c2cc(CNC(=O)c3ccc(Cl)s3)on2)cc1` [Example 32, 5-Chloro-thiophene-2-carboxylic acid (3-{4-[N-(2-methoxy-ethyl)-N-methyl-carbamimidoyl]-phenyl}-isoxazol-5-ylmethyl)-amide] was tested, and the IC50 was at most 100 nM.
Molecule `O=C(NCc1cn(-c2ccc(-n3ccccc3=O)cc2O)nn1)c1ccc(Cl)s1` [Example 307, 5-Chloro-N-((1-(2-hydroxy-4-(2-oxopyridin-1(2H)-yl)phenyl)-1H-1,2,3-triazol-4-yl)methyl)thiophene-2-carboxamide] has an IC50 of at most 100 nM.
`O=C(NCC1CC(c2ccc(Nc3ccccc3)cc2)=NO1)c1ccc(Cl)s1` (centres unmarked) [Example 222, 5-Chloro-thiophene-2-carboxylic acid [3-(4-phenylamino-phenyl)-4,5-dihydro-isoxazol-5-ylmethyl]-amide] gave an IC50 of at least 500 nM.
For `C#CCN(C)C(=N)c1ccc(-c2cc(CN(C)C(=O)c3ccc(Cl)s3)on2)cc1` [Example 47, 5-Chloro-thiophene-2-carboxylic acid methyl-{3-[4-(N-methyl-N-prop-2-ynyl-carbamimidoyl)-phenyl]-isoxazol-5-ylmethyl}-amide], the IC50 was at least 500 nM.
Molecule `CN(C)C(=N)c1ccc(C2=NOC(CNC(=O)c3ccc(Cl)s3)C2)c(N2CCCCCC2)c1` (centres unmarked) [Example 90, 5-Chloro-thiophene-2-carboxylic acid {3-[2-azepan-1-yl-4-(N,N-dimethyl-carbamimidoyl)-phenyl]-4,5-dihydro-isoxazol-5-ylmethyl}-amide] has an IC50 of 100 to 500 nM.
